# Laboratory results: patent US9926293B2, “Multivalent RAS binding compounds” (THE TRUSTEES OF COLUMBIA UNIVERSITY IN THE CITY OF NEW YORK, priority 2014, dated 2018)
# Legend:
# [1] = system: MDA-MB-231 xenografts; assay: Mouse xenograft, therapeutic study; format: in vivo, athymic nude mice
# Experimental: Eight week old nude female mice were injected with 7 million MDA-MB-231 cells.
# For the therapeutic study, athymic nude mice (eight weeks; Charles River Laboratories) were injected with 7 million MDA-MB-231 cells subcutaneously. […] Tumor size was measured by electronic caliper every 2 days and calculated using the formula: 0.523×Length×width^2.
# [2] = system: HT-1080 cells (NRAS^Q61K) transfected; assay: Sensitivity of HT-1080 cells overexpressing KRAS^G12V, PI3K^E545K, BRAF^V600E; format: cell-based; settings: BRAF^V600E or both, 5 μM, 24 h
# Experimental: RAS, PI3K and BRAF Overexpression.
# Phoenix-AMPHO (ATCC: CRL-3213) cells were seeded in a 6-well plate at 600,000 cells/well 24 hours prior to use in 10% FBS and 1% PS in DMEM. A solution of lipofectamine 2000 (6 μL) in 100 μL opti-mem media (reduced serum media) and the plasmid (2.5 μg) in 100 μL opti-mem media were combined and incubated 5 minutes at 25° C., then added to 1.8 mL of opti-mem in each well. After 12 hours, the media was replaced with 10% FBS and 1% PS in DMEM. The next day the supernatant was collected three times spaced 4 hours apart and polybrene was added ( 1/1000). The supernatant was filtered (0.45 μm) and added to HT1080 cells seeded at 100,000 cells per well (6-well dish) in 2 mL portions spaced 4 hours apart. After 48 hours, the cells were trypsinized and re-seeded in medium containing puromycin (2 μg/mL). After 6 days of selection the cells were analyzed for expression using the aforementioned qPCR procedure. 2 mL solutions of the inhibitors were added to a 6-well plate of the transfected HT-1080 cells (100,000 cells/well) and treated for 24 hours. The cells were then trypsinized, re-suspended in 1 mL of medium and viability was measured by VI-CELL (Beckman Coulter) through mixing with trypan blue.
smiles,measurement,setting,value
"NC1(C(=O)NCCCn2cc(-c3ccc(OC(F)(F)F)cc3)c3cc(CN4CCN(Cc5c(Cl)cccc5Cl)CC4)ccc32)CCNCC1 [Compound 31MEW44, 4-amino-N-(3-(5-((4-(2,6-dichlorobenzyl)piperazin-1-yl)methyl)-3-(4-(trifluoromethoxy)phenyl)-1H-indol-1-yl)propyl)piperidine-4-carboxamide]",tumor size,"[1]; intravenous and intraperitoneal injections 30 mg/kg, 4 IV and 6 IP doses",almost complete elimination of the tumor
same,tumor size,"[1]; orally 180 mg/kg, 10 doses over two weeks",almost complete elimination of the tumor
same,resistance on overexpression,[2],resistance was indeed observed in all cases
